Data taken from patent publication US10519111B2, “UV absorbing compounds, compositions comprising same and uses thereof” (CORAL SUNSCREEN PTY LTD, priority 2013, dated 2019).

Experiments:
[1] = UV absorption properties (λmax, molar extinction coefficient ε, efficiency E 1%, 1 cm); type: physicochemical; conditions: for ε: in M-1 cm-1
[2] = Critical wavelength (λcrit), approximate in-house measurement; type: physicochemical
Text: As the precise test for critical wavelength was unable to be replicated exactly by the inventors due to the need for specialist equipment and a specific calibration of the spectrophotometer, these values are only approximate to a degree. […] This represents a highly useful result and so, compounds based around this benzoyl substitution pattern shown, are especially preferred.

[3] = Table 10, bis and mono enamine compounds
[4] = Table 13B, miscellaneous compounds
[5] = Table 13B, values in order of the λmax values
[6] = Table 3, compounds from isocyanates or isothiocyanates

SMILES	λmax [1, 4] [nm]	E (1%, 1 cm) [1, 5]	ε [1, 5]	λcrit ([2]; Table 13B) [nm]	other results
Cc1ccc(N2C=CC(C)(C)CC2)cc1					E (1%, 1 cm) ([1]; Table 10): 1036; λmax [1, 3]: 278 nm; ε ([1]; Table 10): 20823; λcrit ([2]; Table 10): 321 nm
Cc1ccc(N2C=CC(C)(C)C=C2)cc1					E (1%, 1 cm) ([1]; Table 10): 1601; λmax [1, 3]: 283 nm; ε ([1]; Table 10): 31871; λcrit ([2]; Table 10): 317 nm
CC1(C)C=CN(c2ccncc2)C=C1					E (1%, 1 cm) ([1]; Table 10): 977; λmax [1, 3]: 305 nm; ε ([1]; Table 10): 18164; λcrit ([2]; Table 10): 327 nm
C=CC(=O)C1=CN(c2ccc(C)cc2)CCC1(C)C	348	1045	26657	377	
CCCCNc1ccc(C(=O)C2=CN(C(C)(C)C)CCC2(C)C)cc1	316	626	21545	360	
CC1(C)CCN(C(C)(C)C)C=C1C(=O)c1ccc(Nc2ccccc2)cc1	315	737	26695	361	
Cc1ccc(N2C=C(C(=O)N(CCCCN(C(=O)C3=CN(c4ccc(C)cc4)CCC3(C)C)c3ccccc3)c3ccccc3)C(C)(C)CC2)cc1	325	608	42215	346	
CC1(C)CCN(C(C)(C)C)C=C1C(=O)/C=C/c1ccc(/C=C/C(=O)C2=CN(C(C)(C)C)CCC2(C)C)cc1	386	705	36404	390	
CC1(C)CCN(c2ccc(C(C)(C)C)cc2)C=C1C(=O)N(Cc1ccc(CN(C(=O)C2=CN(c3ccc(C(C)(C)C)cc3)CCC2(C)C)c2ccccc2)cc1)c1ccccc1	326	567	46937	352	
CC1(C)CCN(C(C)(C)C)C=C1C(=O)N(CCCCN(C(=O)C1=CN(C(C)(C)C)CCC1(C)C)c1ccccc1)c1ccccc1	312	354	22166	357	
CC1(C)CCN(C(C)(C)C)C=C1C(=O)N(Cc1ccc(CN(C(=O)C2=CN(C(C)(C)C)CCC2(C)C)c2ccccc2)cc1)c1ccccc1	314	391	26421	365	
CCC(=O)C1=CN(c2ccc(Oc3ccc(N4C=C(C(=O)CC)C(C)(C)CC4)cc3)cc2)CCC1(C)C	334	1121	58063	353	
Cc1cc(-c2ccc(N3C=C(C(=O)C(F)(F)F)C(C)(C)CC3)c(C)c2)ccc1N1C=C(C(=O)C(F)(F)F)C(C)(C)CC1	331	1207	71432	354	
Cc1cc(-c2ccc(N3C=C(C(=O)C(F)(F)F)C(C)(C)CC3)c(C)c2)ccc1N1C=CC(C)(C)C(C(=O)C(F)(F)F)=C1	326	859	50670	378	
CCC(=O)C1=CN(c2ccc(-c3ccc(N4C=C(C(=O)CC)C(C)(C)CC4)c(C)c3)cc2C)CCC1(C)C	328	1234	63191	349	
Cc1cc(/C=C/C(=O)C2=CN(C(C)(C)C)CCC2(C)C)c(C)cc1Br	360	532	21473	386	
Cc1cc(/C=C/C(=O)C2=CN(C(C)(C)C)CCC2(C)C)c(C)cc1/C=C/C(=O)C1=CN(C(C)(C)C)CCC1(C)C	385	591	32159	390	
COC(=O)c1cc(Br)ccc1/C=C/C(=O)C1=CN(C(C)(C)C)CCC1(C)C	362	411	13489	386	
COC(=O)c1cc(/C=C/C(=O)C2=CN(C(C)(C)C)CCC2(C)C)ccc1/C=C/C(=O)C1=CN(C(C)(C)C)CCC1(C)C	383	525	30128	389	
CCCCCCC(=O)C1=CN(c2ccc(N3C=C(C(=O)CCCCCC)C(C)(C)CC3)cc2)CCC1(C)C	359			378	
CCOC(=O)c1cc(/C=C/C(=O)C2=CN(C(C)(C)C)CCC2(C)C)c(C(=O)OCC)cc1/C=C/C(=O)C1=CN(C(C)(C)C)CCC1(C)C	383	355	23457	388	
COc1cc(/C=C/C(=O)C2=CN(C(C)(C)C)CCC2(C)C)c(OC)cc1/C=C/C(=O)C1=CN(C(C)(C)C)CCC1(C)C	402	559	32220	391	

SMILES	λmax [1, 4] [nm]	E (1%, 1 cm) [1, 5]	ε [1, 5]	λcrit ([2]; Table 13B) [nm]	other results
CC1(C)CCN(C(C)(C)C)C=C1C(=O)/C=C/c1ccc(/C=C/C(=O)C2=CN(C(C)(C)C)CCC2(C)C)c([N+](=O)[O-])c1	391	369	24359	388	
CC1(C)CCN(C(C)(C)C)C=C1C(=O)c1ccc(N2CCN(c3ccc(C(=O)C4=CN(C(C)(C)C)CCC4(C)C)cc3)CC2)cc1	323	830	51851	356	
CCCCC(CC)CNc1ccc(C(=O)C2=CN(C(C)(C)C)CCC2(C)C)cc1 (stereo not drawn)	318	551	21936	362	
CCC(=O)C1=CN(c2ccc(N3C=C(C(=O)CC)C(C)(C)CC3)cc2)CCC1(C)C	357	1290	52638	377	
CCCCCCCCCC(=O)C1=CN(c2ccc(N3C=C(C(=O)CCCCCCCCC)C(C)(C)CC3)cc2)CCC1(C)C	359	898	54278	378	
CCCCCCCCCCCCCCCCCC(=O)C1=CN(c2ccc(N3C=C(C(=O)CCCCCCCCCCCCCCCCC)C(C)(C)CC3)cc2)CCC1(C)C	359	447	37068	379	
CCCOC(=O)CCC(=O)C1=CN(c2ccc(N3C=C(C(=O)CCC(=O)OCCC)C(C)(C)CC3)cc2)CCC1(C)C	358	820	47560	377	
CC1(C)CCN(c2ccc(N3C=C(C(=O)CC4CCCCC4)C(C)(C)CC3)cc2)C=C1C(=O)CC1CCCCC1	360	1030	56032	379	
CCCCCCC(=O)C1=CN(c2ccc(N3C=C(C(=O)CC(C)CCC=C(C)C)C(C)(C)CC3)cc2)CCC1(C)C (stereo not drawn)	358	934	52353	378	
CC(C)(C)CC(C)(C)N1C=C(C(=O)/C=C/c2ccc(/C=C/C(=O)C3=CN(C(C)(C)CC(C)(C)C)CCC3(C)C)cc2)C(C)(C)CC1	386	486	31937	390	
CC(C)(C)CC(C)(C)N1C=C(C(=O)/C=C/c2ccc(Br)cc2)C(C)(C)CC1	360	437	18987	386	
CC(C)(C)CC(C)(C)N1C=C(C(=O)/C=C/c2ccc(/C=C/C(=O)Cl)cc2)C(C)(C)CC1	374	434	19194	385	
CC1(C)CCN(C(C)(C)C)C=C1C(=O)Nc1ccccc1 [drawing 57]					Ε (1%, 1 cm) ([1]; Table 3): 1217; λmax [1, 6]: 308 nm; ε ([1]; Table 3): 34834; λcrit ([2]; Table 3): 326 nm
CN(C(=O)C1=CN(C(C)(C)C)CCC1(C)C)c1ccccc1 [drawing 58]					Ε (1%, 1 cm) ([1]; Table 3): 506; λmax [1, 6]: 312 nm; ε ([1]; Table 3): 15174; λcrit ([2]; Table 3): 337 nm
CC1(C)CCN(C(C)(C)C)C=C1C(=O)NCCCCCCNC(=O)C1=CN(C(C)(C)C)CCC1(C)C [drawing 59]					Ε (1%, 1 cm) ([1]; Table 3): 619; λmax [1, 6]: 289 nm; ε ([1]; Table 3): 31072; λcrit ([2]; Table 3): 314 nm
CC1(C)CCN(C(C)(C)C)C=C1C(=S)Nc1ccccc1 [drawing 60]					Ε (1%, 1 cm) ([1]; Table 3): 691; λmax [1, 6]: 363 nm; ε ([1]; Table 3): 20881; λcrit ([2]; Table 3): 387 nm
CCCCNC(=O)C1=CN(C(C)(C)C)CCC1(C)C [drawing 61]					Ε (1%, 1 cm) ([1]; Table 3): 799; λmax [1, 6]: 288 nm; ε ([1]; Table 3): 22531; λcrit ([2]; Table 3): 312 nm
Cc1ccc(NC(=O)C2=CN(C(C)(C)C)CCC2(C)C)cc1NC(=O)C1=CN(C(C)(C)C)CCC1(C)C [drawing 62]					Ε (1%, 1 cm) ([1]; Table 3): 1174; λmax [1, 6]: 308 nm; ε ([1]; Table 3): 59763; λcrit ([2]; Table 3): 329 nm
CC1(C)CCN(C(C)(C)C)C=C1C(=O)Nc1ccc(Cc2ccc(NC(=O)C3=CN(C(C)(C)C)CCC3(C)C)cc2)cc1 [drawing 63]					Ε (1%, 1 cm) ([1]; Table 3): 1105; λmax [1, 6]: 310 nm; ε ([1]; Table 3): 64589; λcrit ([2]; Table 3): 328 nm
Cc1ccc(S(=O)(=O)NC(=O)C2=CN(C(C)(C)C)CCC2(C)C)cc1 [drawing 64]					Ε (1%, 1 cm) ([1]; Table 3): 950; λmax [1, 6]: 304 nm; ε ([1]; Table 3): 34588; λcrit ([2]; Table 3): 319 nm
CC1(C)CCN(C(C)(C)C)C=C1C(=O)Nc1ccc(NC(=O)C2=CN(C(C)(C)C)CCC2(C)C)cc1 [drawing 65]					Ε (1%, 1 cm) ([1]; Table 3): 1456; λmax [1, 6]: 322 nm; ε ([1]; Table 3): 71962; λcrit ([2]; Table 3): 346 nm
CC1(C)CCN(C(C)(C)C)C=C1C(=O)Nc1cccc(NC(=O)C2=CN(C(C)(C)C)CCC2(C)C)c1 [drawing 66]					Ε (1%, 1 cm) ([1]; Table 3): 1129; λmax [1, 6]: 313 nm; ε ([1]; Table 3): 55779; λcrit ([2]; Table 3): 328 nm
